Six molecules from PubChem BioAssay (NCI) can be followed below.

Assay in all cases: growth of human tumour cells (NCI), 48 h
Assay [1] concerns UACC-257 melanoma.
In assay [2] the test system is CCRF-CEM leukemia.
The subject of assay [3] is OVCAR-5 ovarian.
Assay [4] has as its system HOP-92 NSCLC.
Assay [5] concerns SF-295 CNS.
Assay [6] has as its system MCF7 breast.
For assay [7], the system named is SR leukemia.
Assay [8] has as its system BT-549 breast.
The test system of assay [9] is NCI-H522 lung.
The test system of assay [10] is EKVX NSCLC.

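Assay format: 96-well plates, 48-hour exposure. Abbreviation: GI50, concentration required for 50% inhibition of growth. The concentration for full growth arrest is given as TGI.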

As for `CC1=CC(=O)N(c2cccc3c(N4C(=O)C=C(C)C4=O)cccc23)C1=O`, the GI50 in assay [1] was 3.97 µM; in [2], 1.52 µM; in assay [3], 8.35 µM; in assay [4], 2.5 µM; in [5], over 46.7 µM; in assay [6], 3.95 µM. The GI50 is 1.56 µM in [7], 6.44 µM in assay [8], 0.693 µM in [9] and 15.6 µM in assay [10]. Besides, the TGI was 25 µM in assay [1]; 11.1 µM in [2]; 26.3 µM in assay [3]; 21 µM in assay [4]; over 71.5 µM in assay [5]; 23.5 µM in [6]. Moreover, the TGI in [7] came to 5.22 µM; in assay [8] it was 19.5 µM; in assay [9], 1.79 µM; in [10], 33.5 µM.

Regarding `C/C=C(\N=C=S)C(=O)OC1C(COC(C)=O)OC([C@]2(O)CC(=O)C(=N)C(C(=O)O)=C2O)C(O)C1OC1CC(OC)C(O)([C@@H](C)OC(=O)[C@@H](C)CC)C(C)O1` (stereo partly drawn), the TGI in assay [1] was 29.9 µM; in assay [2], 7.45 µM; in assay [3], 40.4 µM; in assay [4], 9.77 µM; in assay [5], 37.2 µM; in assay [6], 38.4 µM. Further, the TGI was 23.2 µM in assay [7], 16.5 µM in assay [8], 5.32 µM in assay [9] and 30.3 µM in [10].

For the molecule `Cn1c(CCCC(=O)O)nc2cc(N(CCCl)CCCl)ccc21`, the GI50 in assay [1] is over 94.7 µM; in assay [2], 28.1 µM; in assay [3], over 100 µM; in assay [4], 33.5 µM; in assay [5], over 64.4 µM; in [6] it was 69.2 µM. The GI50 in [7] was 40.4 µM; in assay [8], over 77.5 µM; in assay [9], over 93 µM; in assay [10], over 100 µM. Further, the TGI in assay [1] is over 100 µM; in assay [2], over 77.7 µM; in [3] it was over 100 µM; in assay [4] it was over 93.3 µM; in [5], over 100 µM; in assay [6], over 100 µM. Further, the TGI in assay [7], in assay [8], in assay [9] and in [10] was over 100 µM throughout.

Regarding `CCOc1cc(-c2nncn2C)ccc1Nc1ncc2cc(C)nc(NCC(C)(C)C)c2n1`, the GI50 in assay [1] is over 100 µM; in assay [2], 0.321 µM; in [3] it was over 100 µM; in [4] it was over 26 µM; in [5] it was over 100 µM; in assay [7] it was 0.15 µM. Also, the GI50 in [8] was over 80.5 µM; in assay [9], over 64.4 µM. The TGI in assay [1], in assay [2], in assay [3], in [4], in assay [5] and in [6] was over 100 µM in each case. Besides, the TGI in assay [7] was over 75.8 µM; in [8] it was over 100 µM; in [9], over 100 µM; in assay [10], over 100 µM.

On to `CN(C)c1ccc(/C=C(\C#N)c2cc3ccccc3[nH]2)cc1`, for which the GI50 in assay [1] is 4.86 µM; in assay [2] it was 0.813 µM; in assay [3] it was 3.8 µM; in assay [4], 1.42 µM; in [5] it was 0.61 µM; in [6], 0.416 µM. In addition, the GI50 in [7] is 0.497 µM; in assay [8], 3.86 µM; in [9], 0.542 µM; in [10] it was 2.94 µM. Besides, the TGI is over 100 µM in [1]; 14.3 µM in [2]; over 100 µM in assay [3]; 5.53 µM in assay [4]; 7.33 µM in assay [5]; over 100 µM in assay [6]. Further, the TGI in assay [7], in assay [8], in assay [9] and in assay [10] was over 100 µM each time.

Consider `O=C1C=C(NCCO)c2nccc3c2c1nc1ccccc13`, for which the GI50 in [1] is 32.2 µM; in assay [2], 21.3 µM; in assay [3], 28.6 µM; in [4], over 100 µM; in assay [5], 18.5 µM; in assay [6] it was 20.5 µM. In addition, the GI50 is 6.76 µM in [7], 36 µM in assay [8], 22.5 µM in [9] and 26.5 µM in assay [10]. For the same molecule, the TGI in assay [1], in assay [2], in [3], in assay [4], in assay [5] and in assay [6] was over 100 µM in each case. The TGI in assay [7] is over 100 µM; in assay [8] it was over 100 µM; in assay [9] it was 85 µM; in assay [10], 92.2 µM.
